According to patent US20080039482A1, “SULFONAMIDO-MACROCYCLES AS TIE2 INHIBITORS AND SALTS THEREOF, PHARMACEUTICAL COMPOSITIONS COMPRISING SAME, METHODS OF PREPARING SAME AND USES OF SAME” (priority 2006, published 2008):

Key:
[1] = target: T1, Aurora-C (Homo sapiens, UniProt Q9UQB9); test: Aurora C HTRF assay (assay 5); assay type: biochemical; conditions: IC50 assay 5/IC50 assay 2
T1 construct: GST; made in house; host or cells: HEK293 (the text adds '(Sf9)', which contradicts this)
T1 sequence (Q9UQB9 1-309): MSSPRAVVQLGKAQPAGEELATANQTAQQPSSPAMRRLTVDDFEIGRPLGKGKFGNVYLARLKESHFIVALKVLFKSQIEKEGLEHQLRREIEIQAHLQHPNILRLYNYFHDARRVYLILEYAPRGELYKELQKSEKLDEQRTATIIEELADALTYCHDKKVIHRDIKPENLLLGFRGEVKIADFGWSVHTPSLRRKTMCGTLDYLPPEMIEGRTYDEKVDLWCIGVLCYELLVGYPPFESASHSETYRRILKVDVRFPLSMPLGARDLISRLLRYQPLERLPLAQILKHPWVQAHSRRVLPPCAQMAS
Excerpt: Assay 5: Aurora C HTRF Assay
Aurora-C inhibitory activity of compounds of the present invention was quantified employing the Aurora-C HTRF assay as described in the following paragraphs.
Recombinant fusion protein of GST and human Aurora-C was expressed in transiently transfected HEK293 cells (Sf9) and purified by Glutathion-Sepharose affinity chromatography. As substrate for the kinase reaction biotinylated peptide biotin-Ttds-FMRLRRLSTKYRT (C-terminus in amid form) was used which can be purchased e.g. form the company JERINI peptide technologies (Berlin, Germany). Aurora-C was incubated for 60 min at 22° C. in the presence of different concentrations of test compounds in 5 μl assay buffer [25 mM Hepes/NaOH pH 7.4, 0.5 mM MnCl2, 2.0 mM dithiothreitol, 0.1 mM sodium ortho-vanadate, 10 μM adenosine-tri-phosphate (ATP), […] substrate, 0.01% (v/v) TritonX-100 (Sigma), 0.05% (w/v) bovine serum albumin, 1% (v/v) dimethylsulfoxide]. The concentration of Aurora-C was adjusted depending of the activity of the enzyme lot and was chosen appropriate to have the assay in the linear range, typical concentrations were in the range of 0.3 nM. The reaction was stopped by the addition of 5 μl of a solution of HTRF detection reagents (0.2 μM streptavidine-XLent and 1.4 nM Anti-Phospho-(Ser/Thr) Akt substrate-Cryptate (Cis biointernational, France, product no. 61P02KAE), a labeled Phospho-(Ser/Thr) Akt substrate antibody [product #9611B, Cell Signalling Technology, Danvers, Mass., USA] labeled with Europium Cryptate, in an aqueous EDTA-solution (40 mM EDTA, 400 mM KF, 0.05% (w/v) bovine serum albumin in 25 mM HEPES/NaOH pH 7.0).
(§1) The resulting mixture was incubated 1 h at 22° C. to allow the binding of the biotinylated phosphorylated peptide to the streptavidine-XLent and the Anti-Phospho-(Ser/Thr) Akt substrate-Cryptate. Subsequently the amount of phosphorylated substrate was evaluated by measurement of the resonance energy transfer from the Prot-A-EuK to the streptavidine-XLent. Therefore, the fluorescence emissions at 620 nm and 665 nm after excitation at 350 nm was measured in a HTRF reader, e.g. a Rubystar (BMG Labtechnologies, Offenburg, Germany) or a Viewlux (Perkin-Elmer). The ratio of the emissions at 665 nm and at […] was taken as the measure for the amount of phosphorylated substrate. The data were normalised (enzyme reaction without inhibitor=0% inhibition, all other assay components but no enzyme=100% inhibition) and IC50 values were calculated by a 4 parameter fit using an inhouse software.

[2] = target: Tie2 (Homo sapiens, UniProt Q02763); test: Tie-2-Kinase HTRF-Assay without kinase preactivation (assay 2); assay type: biochemical; parameters: fusion protein of GST and the intracellular domains of Tie-2; GST; made in house; host or cells: insect cells (Hi-5); conditions: 10 μM ATP, pIC50 = -log IC50 in molar concentration
Excerpt: Tie2-inhibitory activity of compounds of the present invention was quantified employing two Tie2 HTRF assay as described in the following paragraphs.
A recombinant fusion protein of GST and the intracellular domains of Tie-2, expressed in insect cells (Hi-5) and purified by Glutathion-Sepharose affinity chromatography was used as kinase. Alternatively, commercially available GST-Tie2-fusion protein (Upstate Biotechnology, Dundee, Scotland) can be used As substrate for the kinase reaction the biotinylated peptide biotin-Ahx-EPKDDAYPLYSDFG (C-terminus in amid form) was used which can be purchased e.g. from the company Biosynthan GmbH (Berlin-Buch, Germany). Detection of phosphorylated product is achieved specifically by a trimeric detection complex consisting of the phosphorylated substrate, streptavidin-XLent (SA-XLent) which binds to biotin, and Europium Cryptate-labeled anti-phosphotyrosine antibody PT66 which binds to phosphorylated tyrosine.
Tie-2 (3.5 ng/measurement point) was incubated for 60 min at 22° C. in the presence of 10 μM adenosine-tri-phosphate (ATP) and 1 μM substrate peptide (biotin-Ahx-EPKDDAYPLYSDFG-NH2) with different concentrations of test compounds (0 μM and concentrations in the range 0.001-20 μM) in 5 μl assay buffer [50 mM Hepes/NaOH pH 7, 10 mM MgCl2, 0.5 mM MnCl2, 1.0 mM dithiothreitol, 0.01% NP40, protease inhibitor mixture (“Complete w/o EDTA” from Roche, 1 tablet per 2.5 ml), 1% (v/v) dimethylsulfoxide]. The reaction was stopped by the addition of 5 μl of an aqueous buffer (25 mM Hepes/NaOH pH 7.5, 0.28% (w/v) bovine serum albumin) containing EDTA (90 mM) and the HTRF (Homogeneous Time Resolved Fluorescence) detection reagents streptavidine-XLent (0.2 μM, from Cis Biointernational, Marcoule, France) and PT66-Eu-Chelate (0.3 ng/μl; a europium-chelate labelled anti-phospho-tyrosine antibody from Perkin Elmer).
as §1, with “PT66-Eu-Chelate.” for “Anti-Phospho-(Ser/Thr) Akt substrate-Cryptate.”, “substrate peptide” for “substrate”, “PT66-Eu-Chelate” for “Prot-A-EuK”, “substrate peptide.” for “substrate.”

Chain of Tie2 (Q02763 770-1124 limits assumed, species assumed): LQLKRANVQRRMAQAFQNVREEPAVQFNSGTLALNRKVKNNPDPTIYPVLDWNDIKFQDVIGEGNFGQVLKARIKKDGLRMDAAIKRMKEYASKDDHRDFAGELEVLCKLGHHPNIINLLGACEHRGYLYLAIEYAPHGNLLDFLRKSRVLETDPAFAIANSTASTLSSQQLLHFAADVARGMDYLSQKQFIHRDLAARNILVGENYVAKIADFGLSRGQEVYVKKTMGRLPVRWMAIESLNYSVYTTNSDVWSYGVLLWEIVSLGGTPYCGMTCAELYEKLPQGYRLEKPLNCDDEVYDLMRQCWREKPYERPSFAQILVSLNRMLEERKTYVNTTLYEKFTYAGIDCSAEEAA

Selectivity vs. Aurora C [1]: >20 fold | IC50 [2]: < 100 nM
Structure (SMILES): O=C(Nc1ccc(-c2cnc3nc2NCCCNS(=O)(=O)c2cccc(c2)N3)cc1)C1(c2cccc(F)c2)CC1 [Example 8, 1-(3-Fluoro-phenyl)-cyclopropane-carboxylic acid [4-(13,13-dioxo-13λ^6-thia-2,4,8,12,19-pentaaza-tricyclo[12.3.1.1^3,7]nonadeca-1(18),3(19),4,6,14,16-hexaen-6-yl)-phenyl]-amide]
